According to patent US10766884B2 (Pfizer Inc., priority 2018, dated 2020):

What was measured:
CDK4/Cyclin D1 = CDK4/Cyclin D1 (Homo sapiens (Human), UniProt P11802); assay: CDK4/Cyclin D1 mobility shift assay; assay type: biochemical; details: activated CDK4/Cyclin D1, 3.5 mM ATP, Morrison fit; read-out: CDK4D1 Ki
CDK6 = CDK6 (Homo sapiens (Human), UniProt Q00534); assay: Phospho-Serine 795 Rb ELISA assay in MV4-11 cells; assay type: cell-based; details: overnight treatment, phospho-Rb S795, read-out: CDK6 pRB S795 ELISA MV4-11 cells IC50
Chain of CDK6 (Q00534 whole entry): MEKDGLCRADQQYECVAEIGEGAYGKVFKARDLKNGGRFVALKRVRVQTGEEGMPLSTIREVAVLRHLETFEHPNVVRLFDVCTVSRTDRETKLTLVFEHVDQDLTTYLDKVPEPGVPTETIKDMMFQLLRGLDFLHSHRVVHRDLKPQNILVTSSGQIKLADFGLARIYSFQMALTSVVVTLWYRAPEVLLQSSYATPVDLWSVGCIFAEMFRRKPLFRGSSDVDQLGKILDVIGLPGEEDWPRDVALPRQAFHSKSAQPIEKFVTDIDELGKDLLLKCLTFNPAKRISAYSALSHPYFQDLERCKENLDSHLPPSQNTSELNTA
Chain of CDK6 (P30281 whole entry partner): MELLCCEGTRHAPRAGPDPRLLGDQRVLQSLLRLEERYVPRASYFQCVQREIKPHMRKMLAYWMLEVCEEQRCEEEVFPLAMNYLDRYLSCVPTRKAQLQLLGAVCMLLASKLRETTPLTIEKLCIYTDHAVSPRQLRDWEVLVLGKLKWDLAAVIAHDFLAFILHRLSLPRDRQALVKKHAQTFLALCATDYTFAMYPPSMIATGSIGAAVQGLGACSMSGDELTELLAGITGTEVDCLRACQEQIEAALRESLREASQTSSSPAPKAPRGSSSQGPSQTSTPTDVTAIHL

CDK4 = CDK4 (Homo sapiens (Human), UniProt P11802); assay: Phospho-Serine 795 Rb ELISA assay in JEKO-1 cells; assay type: cell-based; details: overnight treatment, phospho-Rb S795, read-out: CDK4 pRB S795 ELISA JEKO-1 cells IC50
Chain of CDK4 (P11802 2-303): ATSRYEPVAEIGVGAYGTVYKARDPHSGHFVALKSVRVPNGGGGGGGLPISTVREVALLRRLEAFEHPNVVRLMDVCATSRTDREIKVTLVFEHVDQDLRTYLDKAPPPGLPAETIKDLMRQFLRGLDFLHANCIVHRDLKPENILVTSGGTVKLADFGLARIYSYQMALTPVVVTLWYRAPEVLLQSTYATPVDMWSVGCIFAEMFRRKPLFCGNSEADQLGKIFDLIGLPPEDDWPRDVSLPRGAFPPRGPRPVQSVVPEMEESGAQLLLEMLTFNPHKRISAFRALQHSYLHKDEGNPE
Chain of CDK4 (P24385 whole entry partner): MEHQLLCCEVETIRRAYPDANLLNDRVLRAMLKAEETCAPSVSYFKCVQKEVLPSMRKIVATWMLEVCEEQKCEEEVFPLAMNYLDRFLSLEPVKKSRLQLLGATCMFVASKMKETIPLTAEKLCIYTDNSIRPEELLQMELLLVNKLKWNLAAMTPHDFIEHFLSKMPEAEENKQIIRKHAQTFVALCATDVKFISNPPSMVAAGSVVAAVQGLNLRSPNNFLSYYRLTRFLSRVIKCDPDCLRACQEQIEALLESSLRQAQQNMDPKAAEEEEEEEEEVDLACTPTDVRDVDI

CDK6/Cyclin D3 = CDK6/Cyclin D3 (Homo sapiens (Human), UniProt Q00534); assay: CDK6/Cyclin D3 mobility shift assay; assay type: biochemical; details: activated CDK6/Cyclin D3, 3.5 mM ATP, Morrison fit; read-out: CDK6_D3 Ki
Chain of CDK6/Cyclin D3 (Q00534 whole entry): as the sequence (Q00534 whole entry) above
Chain of CDK6/Cyclin D3 (P30281 whole entry partner): as the sequence (P30281 whole entry partner) above

Chain of CDK4/Cyclin D1 (P11802 whole entry): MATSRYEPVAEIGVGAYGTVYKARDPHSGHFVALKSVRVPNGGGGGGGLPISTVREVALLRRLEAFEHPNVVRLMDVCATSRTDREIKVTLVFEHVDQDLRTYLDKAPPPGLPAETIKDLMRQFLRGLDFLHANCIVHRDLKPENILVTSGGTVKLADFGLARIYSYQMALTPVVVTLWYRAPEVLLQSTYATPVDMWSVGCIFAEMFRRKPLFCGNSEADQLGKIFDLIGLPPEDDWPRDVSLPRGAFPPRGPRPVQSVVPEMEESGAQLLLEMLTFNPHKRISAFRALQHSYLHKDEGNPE
Chain of CDK4/Cyclin D1 (P24385 whole entry partner): as the sequence (P24385 whole entry partner) above

Row | Ki (CDK4/Cyclin D1) [nM] | IC50 (CDK6) [nM] | IC50 (CDK4) [nM] | Ki (CDK6/Cyclin D3) [nM] | Structure (SMILES)
1 | 0.7 | 219 | 76 | 14.3 | Cn1nc2c(F)cc(-c3nc(N[C@@H]4CCOC[C@H]4O)ncc3Cl)cc2c1C(C)(C)N [Example A49, 3-({4-[3-(2-aminopropan-2-yl)-7-fluoro-2-methyl-2H-indazol-5-yl]-5-chloropyrimidin-2-yl}amino)-1,5-anhydro-2,3-dideoxy-D-threo-pentitol]
2 | 0.5 | 311 | 108 | 11.5 | CCS(=O)(=O)N1CC[C@@H](Nc2ncc(Cl)c(-c3cc(F)c4nc(C)n(C5COC5)c4c3)n2)[C@H](O)C1 [Example F08, (3R,4R)-4-({5-chloro-4-[4-fluoro-2-methyl-1-(oxetan-3-yl)-1H-benzimidazol-6-yl]pyrimidin-2-yl}amino)-1-(ethanesulfonyl)piperidin-3-ol]
3 | 4.1 | 1220 | 395 | 88.5 | Cc1cnc(N[C@@H]2CCN(S(C)(=O)=O)C[C@H]2O)nc1-c1cc(F)c2nc(C)n(C(C)C)c2c1 [Example A83, (3R,4R)-4-({4-[4-fluoro-2-methyl-1-(propan-2-yl)-1H-benzimidazol-6-yl]-5-methylpyrimidin-2-yl}amino)-1-(methanesulfonyl)piperidin-3-ol]
4 | 0.5 | 51.1 | 14.9 | 16.4 | CC(C)NCc1nc2c(F)cc(-c3nc(N[C@@H]4CCN(S(C)(=O)=O)C[C@H]4O)ncc3Cl)cc2n1C(C)C [Example H10, (3R,4R)-4-({5-chloro-4-[4-fluoro-1-(propan-2-yl)-2-{[(propan-2-yl)amino]methyl}-1H-benzimidazol-6-yl]pyrimidin-2-yl}amino)-1-(methanesulfonyl)piperidin-3-ol]
5 | 3.1 | 216 | 92.8 | 48.8 | CC(C)n1c(C(C)(C)N)nc2c(F)cc(-c3nc(N[C@@H]4CCOC[C@H]4O)ncc3Cl)cc21 [Example A41, 3-({4-[2-(2-aminopropan-2-yl)-4-fluoro-1-(propan-2-yl)-1H-benzimidazol-6-yl]-5-chloropyrimidin-2-yl}amino)-1,5-anhydro-2,3-dideoxy-D-threo-pentitol]
6 | 0.5 | 131 | 99.2 | 6.2 | CC(C)c1c2cc(-c3nc(N[C@@H]4CCN(S(C)(=O)=O)C[C@H]4O)ncc3Cl)ccc2nn1C [Example A28]
7 | 0.3 | 144 | 123 | 3 | C[C@@H]1COCc2nc3c(F)cc(-c4nc(N[C@@H]5CCN(S(C)(=O)=O)C[C@H]5O)ncc4Cl)cc3n21 [Example A11]
8 | 0.6 | 108 | 29.8 | 7.9 | CC(C)n1c([C@H](C)O)nc2cc(F)c(-c3nc(N[C@@H]4CCOC[C@H]4O)ncc3Cl)cc21 [Example A12]
9 | 2.7 | 973 | 202 | 60.1 | Cc1nc2c(F)cc(-c3nc(N[C@@H]4CCOC[C@H]4O)ncc3Cl)cc2n1C(C)(C)CN [Example A52, 3-({4-[1-(1-amino-2-methylpropan-2-yl)-4-fluoro-2-methyl-1H-benzimidazol-6-yl]-5-chloropyrimidin-2-yl}amino)-1,5-anhydro-2,3-dideoxy-D-threo-pentitol]
10 | 0.9 | 188 | 72 | 16.1 | COCC(C)n1c(C)nc2c(F)cc(-c3nc(N[C@@H]4CCN(S(C)(=O)=O)C[C@H]4O)ncc3Cl)cc21 (single isomer, unassigned) [Example A73]
11 | 0.2 | 63.5 | 51.6 | 4.9 | CC(C)n1c(C2COC2)nc2c(F)cc(-c3nc(N[C@@H]4CCN(S(C)(=O)=O)C[C@H]4O)ncc3Cl)cc21 [Example A30]
12 | 4.9 | 408 | 76.5 | 114 | CNCc1nc2c(F)cc(-c3nc(N[C@@H]4CCOC[C@H]4O)ncc3Cl)cc2n1C(C)C [Example A44, 1,5-anhydro-3-[(5-chloro-4-{4-fluoro-2-[(methylamino)methyl]-1-(propan-2-yl)-1H-benzimidazol-6-yl}pyrimidin-2-yl)amino]-2,3-dideoxy-D-threo-pentitol]
13 | 0.1 | 42.9 | 23.8 | 0.9 | CC(C(F)F)n1c(CO)nc2c(F)cc(-c3nc(N[C@@H]4CCN(S(C)(=O)=O)C[C@H]4O)ncc3Cl)cc21 (stereo partly drawn) [Example A92, (3R,4R)-4-({5-chloro-4-[1-(1,1-difluoropropan-2-yl)-4-fluoro-2-(hydroxymethyl)-1H-benzimidazol-6-yl]pyrimidin-2-yl}amino)-1-(methanesulfonyl)piperidin-3-ol]
14 | 4.5 | 10000 | 7320 | 80.4 | Cc1nc2c(F)cc(-c3nc(N[C@@H]4CCN(S(C)(=O)=O)C[C@H]4O)ncc3F)cc2n1C1CNC1 [Example A88, (3R,4R)-4-({4-[1-(azetidin-3-yl)-4-fluoro-2-methyl-1H-benzimidazol-6-yl]-5-fluoropyrimidin-2-yl}amino)-1-(methanesulfonyl)piperidin-3-ol]
15 | 1 | 269 | 75.6 | 15.7 | CC1(C)OCCn2nc3c(F)cc(-c4nc(N[C@@H]5CCOC[C@H]5O)ncc4Cl)cc3c21 [Example A27]
